Source: US20170325459A1, “BICYCLIC COMPOUNDS AS PEST CONTROL AGENTS” (Bayer CropScience Aktiengesellschaft, priority 2014, published 2017)

Key:
[1] = log P by HPLC (OECD Guideline 117), method [a] acidic range pH 2.7; format: physicochemical; conditions: for chromatographic logP: reversed-phase (RP) C18 HPLC column
Protocol: (§1) The log P values were determined in accordance with OECD Guideline 117 (EC Directive 92/69/EEC) by HPLC (high-performance liquid chromatography) using reversed-phase (RP) columns (C18), by the following methods: [a] The LC-MS determination in the acidic range is carried out at pH 2.7 with 0.1% aqueous formic acid and acetonitrile (contains 0.1% formic acid) as eluents; linear gradient from 10% acetonitrile to 95% acetonitrile. [b] LC-MS determination in the neutral range is effected at pH 7.8 with 0.001 molar aqueous ammonium hydrogencarbonate solution and acetonitrile as eluents; linear gradient from 10% acetonitrile to 95% acetonitrile. Calibration is effected using unbranched alkan-2-ones (having 3 to 16 carbon atoms) with known log P values (log P values determined on the basis of the retention times by linear interpolation between two successive alkanones).

[2] = log P by HPLC (OECD Guideline 117), method [b] neutral range pH 7.8; format: physicochemical; conditions: for chromatographic logP: reversed-phase (RP) C18 HPLC column
Protocol: as §1

| SMILES | chromatographic logP [1] | logP[a] [1] | also measured |
| --- | --- | --- | --- |
| CN(C(=O)c1cccc(SC(F)(F)F)c1)c1ccc2nc(-c3cncc(F)c3)sc2c1 [compound 85, N-[2-(5-Fluoropyridin-3-yl)-1,3-benzothiazol-6-yl]-N-methyl-3-[(trifluoromethyl)sulphanyl]benzamide] | 3.88 |  |  |
| Cc1cc(F)c(Nc2ccc3nc(-c4cccnc4)sc3c2)cc1[S+]([O-])CC(F)(F)F (centres unmarked) [compound 21, N-{2-Fluoro-4-methyl-5-[(2,2,2-trifluoroethyl)sulphinyl]phenyl}-2-(pyridin-3-yl)-1,3-benzothiazol-6-amine] | 2.85 |  | chromatographic logP [2]: 2.9 |
| Cn1c(SCC(F)(F)F)nn(-c2ccc3nc(-c4cccnc4)sc3c2)c1=O [compound 54] |  | 2.84 | logP[b] [2]: 2.91 |
| Cn1c(OCC(F)(F)F)nn(-c2ccc3nc(-c4cccnc4)sc3c2)c1=O [compound 53] |  | 2.8 | logP[b] [2]: 2.88 |
| c1ccc(Nc2ccc3nc(-c4cccnc4)sc3c2)nc1 [compound 24, N-(Pyridin-2-yl)-2-(pyridin-3-yl)-1,3-benzothiazol-6-amine] | 1.04 |  | chromatographic logP [2]: 2.47 |
| O=C(NCC(F)(F)F)c1ccc2nc(-c3cccnc3)sc2c1 [compound 63] |  | 2.02 |  |
| c1cncc(-c2nc3ccc(N4CCOCC4)cc3s2)c1 [compound 15, 6-(Morpholin-4-yl)-2-(pyridin-3-yl)-1,3-benzothiazole] | 2 |  | chromatographic logP [2]: 2.14 |
| c1cncc(-c2nc3ccc(-n4cccn4)cc3s2)c1 [compound 26] |  |  | logP[b] [2]: 2.2 |
| O=C(Nc1cccc([S+]([O-])C(F)(F)F)c1)c1ccc2nc(-c3cncc(F)c3)sc2c1 (centres unmarked) [compound 75, 2-(5-Fluoropyridin-3-yl)-N-{3-[(trifluoromethyl)sulphinyl]phenyl}-1,3-benzothiazole-6-carboxamide] | 3.26 |  |  |
| Clc1ccccc1-c1ccc2nc(-c3cccnc3)sc2c1 [compound 6] |  | 4.05 | logP[b] [2]: 4.2 |
| Cc1cc(C)c([S+]([O-])CC(F)(F)F)cc1Nc1ccc2nc(-c3cccnc3)sc2c1 (centres unmarked) [compound 19, N-{2,4-Dimethyl-5-[(2,2,2-trifluoroethyl)sulphinyl]phenyl}-2-(pyridin-3-yl)-1,3-benzothiazol-6-amine] |  |  | chromatographic logP [2]: 3.07 |
| O=C(Nc1cccc(SC(F)(F)F)c1)c1ccc2nc(-c3cncc(F)c3)sc2c1 [compound 74, 2-(5-Fluoropyridin-3-yl)-N-{3-[(trifluoromethyl)sulphanyl]phenyl}-1,3-benzothiazole-6-carboxamide] | 4.29 |  |  |
| c1cncc(-c2nc3ccc(-n4cncn4)cc3s2)c1 [compound 31, 2-(Pyridin-3-yl)-6-(1H-1,2,4-triazol-1-yl)-1,3-benzothiazole] |  |  | chromatographic logP [2]: 1.63 |
| c1ccc(-c2ccc3nc(-c4cccnc4)sc3c2)cc1 [compound 1] |  | 3.7 | logP[b] [2]: 3.87 |
| O=C(Nc1cccc(SC(F)(F)F)c1)c1ccc2nc(-c3cccnc3)sc2c1 [compound 73] |  | 3.76 |  |
| Cn1ccc(-c2ccc3nc(-c4cccnc4)sc3c2)n1 [compound 36] |  | 2.05 | logP[b] [2]: 2.03 |
| O=C(Nc1ccc2nc(-c3cccnc3)sc2c1)c1cccc([S+]([O-])C(F)(F)F)c1 (centres unmarked) [compound 86] |  | 2.63 |  |
| O=C(Nc1ccc2nc(-c3cncc(F)c3)sc2c1)c1cccc([S+]([O-])C(F)(F)F)c1 (centres unmarked) [compound 87, N-[2-(5-Fluoropyridin-3-yl)-1,3-benzothiazol-6-yl]-3-[(trifluoromethyl)sulphinyl]benzamide] | 3.27 |  |  |
| CCC(=O)N(C)c1ccc2nc(-c3cccnc3)sc2c1 [compound 76, N-Methyl-N-[2-(pyridin-3-yl)-1,3-benzothiazol-6-yl]propanamide] | 1.84 |  |  |
| CN(C(=O)C1CCS(=O)(=O)C1)c1ccc2nc(-c3cncc(F)c3)sc2c1 (centres unmarked) [compound 83] |  | 1.94 |  |
| CN(C(=O)c1cccc(SC(F)(F)F)c1)c1ccc2nc(-c3cccnc3)sc2c1 [compound 84] |  | 3.24 |  |
